Results taken from PubChem BioAssay AID256 (DTP/NCI, 2004).
Several values for one entry are separate records, joined by “and”; a condition that tells them apart may be missing. Equal entries are not always repeated. Inconclusive results and toxic doses are left out. Rule for the calls: active = survival T/C of 150% or more; inactive = T/C below 125% in these data.

Tested on: CD2F1 mice, L1210 leukemia ip, survival T/C
Test: NCI In Vivo Anticancer Drug Screen. Data for tumor model L1210 Leukemia (intraperitoneal) in CD2F1 (CDF1) mice
Details: higher = longer survival
How it was run: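 Vehicle-treated tumor-bearing mice served as controls (C) for compound-treated mice (T). Reported figure is T divided by C.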

[1] = endpoint: mean survival time, dose: 12.5 mg/kg/injection, schedule: Q01DX009 (ip), vehicle: saline with Tween-80
[2] = endpoint: mean survival time, dose: 25.0 mg/kg/injection, schedule: Q01DX009 (ip), vehicle: saline with Tween-80
[3] = endpoint: mean survival time, dose: 50.0 mg/kg/injection, schedule: Q01DX009 (ip), vehicle: saline with Tween-80
[4] = endpoint: mean survival time, dose: 100.0 mg/kg/injection, schedule: Q01DX009 (ip), vehicle: saline with Tween-80
[5] = endpoint: mean survival time, dose: 100.0 mg/kg/injection, schedule: Q04DX003 (ip), vehicle: saline with Tween-80
[6] = endpoint: mean survival time, dose: 200.0 mg/kg/injection, schedule: Q01DX009 (ip), vehicle: saline with Tween-80
[7] = endpoint: mean survival time, dose: 200.0 mg/kg/injection, schedule: Q04DX003 (ip), vehicle: saline with Tween-80
[8] = endpoint: mean survival time, dose: 400.0 mg/kg/injection, schedule: Q04DX003 (ip), vehicle: saline with Tween-80
[9] = endpoint: mean survival time, dose: 75.0 mg/kg/injection, schedule: Q01DX001 (ip), vehicle: saline
[10] = endpoint: mean survival time, dose: 150.0 mg/kg/injection, schedule: Q01DX001 (ip), vehicle: saline
[11] = endpoint: mean survival time, dose: 100.0 mg/kg/injection, schedule: Q04DX003 (ip), vehicle: saline
[12] = endpoint: mean survival time, dose: 400.0 mg/kg/injection, schedule: Q01DX009 (ip), vehicle: saline with Tween-80
[13] = endpoint: mean survival time, dose: 100.0 mg/kg/injection, schedule: Q01DX001 (ip), vehicle: saline with Tween-80

Measured: T/C

O=C1c2ccccc2C(C(O)(C(F)(F)F)C(F)(F)F)c2ccccc21
inactive: [1] 100 % of control | [2] 98 % of control | [3] 96 % of control

NC(N)=N/N=C/c1c(O)ccc2ccccc12
inactive: endpoint: mean survival time, dose: 31.25 mg/kg/injection, schedule: Q01DX010 (oral), vehicle: saline 102 % of control | endpoint: mean survival time, dose: 62.5 mg/kg/injection, schedule: Q01DX010 (oral), vehicle: saline 108 % of control | endpoint: mean survival time, dose: 125.0 mg/kg/injection, schedule: Q01DX010 (oral), vehicle: saline 101 % of control

COc1ccc(C(C)=O)cc1[N+](=O)[O-]
inactive: [4] 98 % of control | [5] 96 % of control | [6] 97 % of control | [7] 102 % of control | [8] 94 % of control

[NH-]C(CCC(N)=O)C(=O)O.[NH-]C(CCC(N)=O)C(=O)O.[Zn+2] (centres undefined)
inactive: endpoint: median survival time, dose: 6.25 mg/kg/injection, schedule: Q01DX009 (ip), vehicle: saline with Tween-80 102 % of control | endpoint: median survival time, dose: 12.5 mg/kg/injection, schedule: Q01DX009 (ip), vehicle: saline with Tween-80 101 % of control | endpoint: median survival time, dose: 25.0 mg/kg/injection, schedule: Q01DX009 (ip), vehicle: saline with Tween-80 96 % of control | endpoint: median survival time, dose: 50.0 mg/kg/injection, schedule: Q01DX009 (ip), vehicle: saline with Tween-80 101 % of control

CCOC(=O)C(Cc1ccccc1OC)P(=O)(OCC)OCC (centres undefined)
inactive: [9] 100 % of control | [10] 94 % of control | endpoint: mean survival time, dose: 300.0 mg/kg/injection, schedule: Q01DX001 (ip), vehicle: saline 96 % of control

O=C(N/N=C/c1ccc(O)cc1)c1ccncc1
inactive: endpoint: mean survival time, dose: 50.0 mg/kg/injection, schedule: Q04DX002 (ip), vehicle: saline with Tween-80 95 % of control | endpoint: mean survival time, dose: 100.0 mg/kg/injection, schedule: Q04DX002 (ip), vehicle: saline with Tween-80 91 % of control | endpoint: mean survival time, dose: 200.0 mg/kg/injection, schedule: Q04DX002 (ip), vehicle: saline with Tween-80 100 % of control | endpoint: mean survival time, dose: 400.0 mg/kg/injection, schedule: Q04DX002 (ip), vehicle: saline with Tween-80 88 % of control

CC(C#N)CCCC#N (centres undefined)
inactive: [2] 100 % of control | [3] 102 % of control | [5] 101 % of control

O=C(O)C1OC(C(=O)O)C(C(=O)O)C1C(=O)O (centres undefined)
inactive: endpoint: mean survival time, dose: 75.0 mg/kg/injection, schedule: Q01DX001 (ip), vehicle: other 100 % of control | endpoint: mean survival time, dose: 150.0 mg/kg/injection, schedule: Q01DX001 (ip), vehicle: other 100 % of control | endpoint: mean survival time, dose: 300.0 mg/kg/injection, schedule: Q01DX001 (ip), vehicle: other 95 % of control

CC1CP(c2ccccc2)(c2ccccc2)(c2ccccc2)OC1(C(=O)c1ccccc1)c1ccccc1 (centres undefined)
inactive: [2] 89 % of control | [5] 91 % of control

C[n+]1ccccc1/C=N/O
inactive: endpoint: mean survival time, dose: 25.0 mg/kg/injection, schedule: Q04DX003 (ip), vehicle: saline 96 % of control | endpoint: mean survival time, dose: 50.0 mg/kg/injection, schedule: Q04DX003 (ip), vehicle: saline 94 % of control | [11] 93 % of control and 97 % of control

CN(C)CCCN(C)CCCN(C)C
inactive: [9] 104 % of control | [10] 103 % of control

O=C(O)CSc1c(Cl)c(=O)oc2ccc(Cl)cc12
inactive: endpoint: median survival time, dose: 6.25 mg/kg/injection, schedule: Q01DX009 (ip), vehicle: Klucel (hydroxypropylcellulose) (HPC) 101 % of control | endpoint: median survival time, dose: 12.5 mg/kg/injection, schedule: Q01DX009 (ip), vehicle: Klucel (hydroxypropylcellulose) (HPC) 101 % of control | endpoint: median survival time, dose: 25.0 mg/kg/injection, schedule: Q01DX009 (ip), vehicle: Klucel (hydroxypropylcellulose) (HPC) 97 % of control | endpoint: median survival time, dose: 50.0 mg/kg/injection, schedule: Q01DX009 (ip), vehicle: Klucel (hydroxypropylcellulose) (HPC) 94 % of control | endpoint: median survival time, dose: 100.0 mg/kg/injection, schedule: Q01DX009 (ip), vehicle: Klucel (hydroxypropylcellulose) (HPC) 108 % of control | endpoint: median survival time, dose: 200.0 mg/kg/injection, schedule: Q01DX009 (ip), vehicle: Klucel (hydroxypropylcellulose) (HPC) 104 % of control

O=C1C=CC(=O)N1c1ccc(Cl)cc1
inactive: endpoint: mean survival time, dose: 6.25 mg/kg/injection, schedule: Q01DX001 (ip), vehicle: Klucel (hydroxypropylcellulose) (HPC) 100 % of control | endpoint: mean survival time, dose: 6.25 mg/kg/injection, schedule: Q01DX009 (ip), vehicle: Klucel (hydroxypropylcellulose) (HPC) 110 % of control | endpoint: mean survival time, dose: 6.25 mg/kg/injection, schedule: Q04DX003 (ip), vehicle: Klucel (hydroxypropylcellulose) (HPC) 107 % of control | endpoint: mean survival time, dose: 12.5 mg/kg/injection, schedule: Q01DX001 (ip), vehicle: Klucel (hydroxypropylcellulose) (HPC) 103 % of control | endpoint: mean survival time, dose: 12.5 mg/kg/injection, schedule: Q01DX009 (ip), vehicle: Klucel (hydroxypropylcellulose) (HPC) 101 % of control | endpoint: mean survival time, dose: 12.5 mg/kg/injection, schedule: Q04DX003 (ip), vehicle: Klucel (hydroxypropylcellulose) (HPC) 104 % of control | endpoint: mean survival time, dose: 25.0 mg/kg/injection, schedule: Q01DX009 (ip), vehicle: Klucel (hydroxypropylcellulose) (HPC) 96 % of control

O=C(Nc1ccccc1Cl)c1ccc([N+](=O)[O-])cc1
inactive: [4] 94 % of control | [5] 96 % of control | [6] 97 % of control | [7] 96 % of control | [12] 97 % of control | [8] 93 % of control

CCC1=[N+](C)c2ccccc2C1(C)C
inactive: [11] 104 % of control

c1ccc2nc3c4ccccc4c4ccccc4c3nc2c1
inactive: endpoint: mean survival time, dose: 100.0 mg/kg/injection, schedule: Q04DX002 (ip), vehicle: Klucel (hydroxypropylcellulose) (HPC) 97 % of control | endpoint: mean survival time, dose: 200.0 mg/kg/injection, schedule: Q04DX002 (ip), vehicle: Klucel (hydroxypropylcellulose) (HPC) 97 % of control | endpoint: mean survival time, dose: 400.0 mg/kg/injection, schedule: Q04DX002 (ip), vehicle: Klucel (hydroxypropylcellulose) (HPC) 97 % of control

O=C1c2ccccc2C(Cl)=C(Cl)C1(Cl)Cl
inactive: [1] 92 % of control | [2] 101 % of control | [3] 101 % of control | [5] 96 % of control | [8] 100 % of control

CCCCCCCCCCCCCCSc1ccc(Br)cc1
inactive: [13] 110 % of control | endpoint: mean survival time, dose: 200.0 mg/kg/injection, schedule: Q01DX001 (ip), vehicle: saline with Tween-80 101 % of control | endpoint: mean survival time, dose: 400.0 mg/kg/injection, schedule: Q01DX001 (ip), vehicle: saline with Tween-80 93 % of control

C(#Cc1ccccc1)/C=C/C=C/c1ccccc1
inactive: endpoint: mean survival time, dose: 25.0 mg/kg/injection, schedule: Q01DX001 (ip), vehicle: saline with Tween-80 95 % of control | endpoint: mean survival time, dose: 50.0 mg/kg/injection, schedule: Q01DX001 (ip), vehicle: saline with Tween-80 87 % of control | [13] 87 % of control and 89 % of control

CC(C)(C)NO
inactive: endpoint: mean survival time, dose: 100.0 mg/kg/injection, schedule: Q01DX001 (ip), vehicle: Klucel (hydroxypropylcellulose) (HPC) 100 % of control | endpoint: mean survival time, dose: 200.0 mg/kg/injection, schedule: Q01DX001 (ip), vehicle: Klucel (hydroxypropylcellulose) (HPC) 96 % of control | endpoint: mean survival time, dose: 400.0 mg/kg/injection, schedule: Q01DX001 (ip), vehicle: Klucel (hydroxypropylcellulose) (HPC) 100 % of control

Cn1c(N)c(N)c(=O)n(C)c1=O
inactive: endpoint: mean survival time, dose: 100.0 mg/kg/injection, schedule: Q04DX002 (ip), vehicle: saline 109 % of control | endpoint: mean survival time, dose: 200.0 mg/kg/injection, schedule: Q04DX002 (ip), vehicle: saline 102 % of control | endpoint: mean survival time, dose: 400.0 mg/kg/injection, schedule: Q04DX002 (ip), vehicle: saline 109 % of control

NC1C(O)C(O)C(O)C(O)C1O (centres undefined)
inactive: endpoint: mean survival time, dose: 100.0 mg/kg/injection, schedule: Q01DX001 (ip), vehicle: saline 98 % of control | endpoint: mean survival time, dose: 200.0 mg/kg/injection, schedule: Q01DX001 (ip), vehicle: saline 98 % of control | endpoint: mean survival time, dose: 400.0 mg/kg/injection, schedule: Q01DX001 (ip), vehicle: saline 98 % of control

Cc1cccc(-c2cc(Cl)c3cc(S(=O)(=O)F)ccc3n2)c1
inactive: [4] 94 % of control | [5] 104 % of control | [6] 93 % of control | [7] 101 % of control | [12] 100 % of control | [8] 92 % of control

Nc1ncnc2cc3c(cc12)ncn3C1OC(CO)C(O)C1O (centres undefined)
inactive: endpoint: mean survival time, dose: 12.5 mg/kg/injection, schedule: Q01DX005 (ip), vehicle: water 92 % of control | endpoint: mean survival time, dose: 25.0 mg/kg/injection, schedule: Q01DX005 (ip), vehicle: water 104 % of control | endpoint: mean survival time, dose: 50.0 mg/kg/injection, schedule: Q01DX005 (ip), vehicle: water 104 % of control | endpoint: mean survival time, dose: 100.0 mg/kg/injection, schedule: Q01DX005 (ip), vehicle: water 112 % of control | endpoint: mean survival time, dose: 200.0 mg/kg/injection, schedule: Q01DX005 (ip), vehicle: water 110 % of control
